In brackets after ≈: the same amount, converted by molar mass. Like-named read-outs stand apart in the source and are kept apart here.
Experiments:
purified recombinant ILK = purified recombinant ILK (Homo sapiens (Human), UniProt Q13418); test: ILK binding affinity, EnSpire fluorescence intensity
purified EGFR = purified EGFR (Homo sapiens (Human), UniProt P00533); test: kinase assay using purified EGFR; format: biochemical
CYP 2A6 = CYP 2A6 (Homo sapiens (Human), UniProt P11509); test: CYP inhibition in human liver microsomes, 2A6; format: in vitro ADME
Sequence of CYP 2A6 (P11509 whole entry): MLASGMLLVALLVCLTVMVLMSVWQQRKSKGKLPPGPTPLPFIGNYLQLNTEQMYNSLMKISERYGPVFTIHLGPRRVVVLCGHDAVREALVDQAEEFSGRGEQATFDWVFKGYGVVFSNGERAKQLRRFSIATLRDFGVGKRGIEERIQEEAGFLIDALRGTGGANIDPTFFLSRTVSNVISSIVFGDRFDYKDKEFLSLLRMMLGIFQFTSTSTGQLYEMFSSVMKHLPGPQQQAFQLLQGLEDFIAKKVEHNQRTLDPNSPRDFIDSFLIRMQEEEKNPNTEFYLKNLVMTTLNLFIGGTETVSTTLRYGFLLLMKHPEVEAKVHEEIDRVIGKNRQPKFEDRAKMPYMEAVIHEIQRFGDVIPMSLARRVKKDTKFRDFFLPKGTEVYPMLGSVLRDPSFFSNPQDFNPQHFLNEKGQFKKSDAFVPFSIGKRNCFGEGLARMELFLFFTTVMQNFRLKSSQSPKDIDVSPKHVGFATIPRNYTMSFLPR

CYP 2B6 = CYP 2B6 (Homo sapiens (Human), UniProt P20813); test: CYP inhibition in human liver microsomes, 2B6; format: in vitro ADME
Sequence of CYP 2B6 (P20813 whole entry): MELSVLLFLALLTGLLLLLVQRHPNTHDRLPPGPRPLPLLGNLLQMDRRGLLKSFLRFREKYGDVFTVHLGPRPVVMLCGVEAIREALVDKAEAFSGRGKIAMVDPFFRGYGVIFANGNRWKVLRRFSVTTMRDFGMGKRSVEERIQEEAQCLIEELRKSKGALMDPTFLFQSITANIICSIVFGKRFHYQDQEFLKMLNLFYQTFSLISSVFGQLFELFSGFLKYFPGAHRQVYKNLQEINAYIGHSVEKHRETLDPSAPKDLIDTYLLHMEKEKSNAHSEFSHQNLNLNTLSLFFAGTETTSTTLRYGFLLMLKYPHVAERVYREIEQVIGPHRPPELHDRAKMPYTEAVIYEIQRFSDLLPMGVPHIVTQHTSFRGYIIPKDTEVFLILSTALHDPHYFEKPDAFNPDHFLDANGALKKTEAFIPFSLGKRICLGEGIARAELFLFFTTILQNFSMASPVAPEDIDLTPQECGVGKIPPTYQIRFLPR

CYP 2C9 = CYP 2C9 (Homo sapiens (Human), UniProt P11712); test: CYP inhibition in human liver microsomes, 2C9; format: in vitro ADME
Sequence of CYP 2C9 (P11712 whole entry): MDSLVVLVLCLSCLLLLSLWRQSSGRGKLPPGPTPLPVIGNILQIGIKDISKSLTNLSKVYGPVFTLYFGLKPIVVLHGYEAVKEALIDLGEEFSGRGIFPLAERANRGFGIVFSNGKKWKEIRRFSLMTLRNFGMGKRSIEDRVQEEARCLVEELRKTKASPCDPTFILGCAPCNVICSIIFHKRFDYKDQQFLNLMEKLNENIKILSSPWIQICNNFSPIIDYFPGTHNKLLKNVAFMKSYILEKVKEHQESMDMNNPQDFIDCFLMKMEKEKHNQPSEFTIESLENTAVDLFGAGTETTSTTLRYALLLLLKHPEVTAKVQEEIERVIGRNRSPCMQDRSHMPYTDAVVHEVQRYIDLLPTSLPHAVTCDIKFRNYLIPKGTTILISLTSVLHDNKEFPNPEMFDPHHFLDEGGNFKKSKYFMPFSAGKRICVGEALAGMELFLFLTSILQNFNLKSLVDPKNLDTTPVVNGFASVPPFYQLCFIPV

CYP 2E1 = CYP 2E1 (Homo sapiens (Human), UniProt P05181); test: CYP inhibition in human liver microsomes, 2E1; format: in vitro ADME
Sequence of CYP 2E1 (P05181 whole entry): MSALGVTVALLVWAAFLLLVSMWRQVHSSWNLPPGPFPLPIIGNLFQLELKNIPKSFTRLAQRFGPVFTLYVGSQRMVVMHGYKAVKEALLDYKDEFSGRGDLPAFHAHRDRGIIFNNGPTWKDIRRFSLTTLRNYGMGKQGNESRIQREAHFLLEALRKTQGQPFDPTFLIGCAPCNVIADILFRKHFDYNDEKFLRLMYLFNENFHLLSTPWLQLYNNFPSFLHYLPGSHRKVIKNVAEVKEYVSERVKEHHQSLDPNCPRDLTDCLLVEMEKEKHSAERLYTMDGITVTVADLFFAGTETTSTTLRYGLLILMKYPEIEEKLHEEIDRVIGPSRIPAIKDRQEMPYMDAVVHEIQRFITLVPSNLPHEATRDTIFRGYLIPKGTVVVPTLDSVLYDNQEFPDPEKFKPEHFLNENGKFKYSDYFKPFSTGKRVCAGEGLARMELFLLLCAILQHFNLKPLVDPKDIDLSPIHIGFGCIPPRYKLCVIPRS

[1] = Metabolic stability in mouse liver microsomes; format: in vitro ADME; details: for Remaining Percentage (%): Mouse
[2] = Log D in 1-Octanol/PBS pH 7.4; format: physicochemical
HepG2 cells = test: Mitochondrial toxicity in HepG2 cells; format: cell-based; details: for IC50: Homo sapiens, HepG2 cells
[3] = Protein binding in human plasma; format: in vitro ADME
[4] = Protein binding in mouse plasma; format: in vitro ADME
[5] = Solubility in PBS at pH 7.4; format: physicochemical; details: aqueous buffer
MCF10a cells = test: Proliferation of normal breast MCF10a cells; format: cell-based; details: compounds at final 2 μM, FIG. 5 panel A
Experimental: (§1) Cells were seeded at 20,000 cells/ml in 12 well plates in complete media. On day 3, the compounds were added at final 2 μM and the cells were counted every 3 days. […] Cells were seeded at 10,000 cells/ml in 12 well plates in complete media. The compounds were added at final 2 μM on day 2 and the cells were counted every 2 days.

MDA-MB-231 cells = test: Proliferation of triple negative breast cancer MDA-MB-231 cells; format: cell-based
Experimental: as §1

[6] = Oral toxicity in normal mice; format: in vivo; details: 25 to 510 mg/kg every day for two weeks, CMC/TWEEN 80

Sequence of purified recombinant ILK (Q13418 whole entry): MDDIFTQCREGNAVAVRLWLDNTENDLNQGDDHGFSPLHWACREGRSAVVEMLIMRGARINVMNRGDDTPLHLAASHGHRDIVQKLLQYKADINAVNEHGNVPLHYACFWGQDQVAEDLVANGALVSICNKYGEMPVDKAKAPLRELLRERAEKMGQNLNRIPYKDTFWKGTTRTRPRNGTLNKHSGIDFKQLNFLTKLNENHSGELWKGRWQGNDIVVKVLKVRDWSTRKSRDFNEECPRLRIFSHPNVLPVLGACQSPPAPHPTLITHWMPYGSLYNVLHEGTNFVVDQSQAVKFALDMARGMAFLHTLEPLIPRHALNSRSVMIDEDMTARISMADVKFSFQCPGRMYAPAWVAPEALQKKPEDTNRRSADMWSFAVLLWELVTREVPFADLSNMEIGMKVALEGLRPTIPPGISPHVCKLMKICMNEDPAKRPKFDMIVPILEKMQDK
Sequence of purified EGFR (P00533 25-1210): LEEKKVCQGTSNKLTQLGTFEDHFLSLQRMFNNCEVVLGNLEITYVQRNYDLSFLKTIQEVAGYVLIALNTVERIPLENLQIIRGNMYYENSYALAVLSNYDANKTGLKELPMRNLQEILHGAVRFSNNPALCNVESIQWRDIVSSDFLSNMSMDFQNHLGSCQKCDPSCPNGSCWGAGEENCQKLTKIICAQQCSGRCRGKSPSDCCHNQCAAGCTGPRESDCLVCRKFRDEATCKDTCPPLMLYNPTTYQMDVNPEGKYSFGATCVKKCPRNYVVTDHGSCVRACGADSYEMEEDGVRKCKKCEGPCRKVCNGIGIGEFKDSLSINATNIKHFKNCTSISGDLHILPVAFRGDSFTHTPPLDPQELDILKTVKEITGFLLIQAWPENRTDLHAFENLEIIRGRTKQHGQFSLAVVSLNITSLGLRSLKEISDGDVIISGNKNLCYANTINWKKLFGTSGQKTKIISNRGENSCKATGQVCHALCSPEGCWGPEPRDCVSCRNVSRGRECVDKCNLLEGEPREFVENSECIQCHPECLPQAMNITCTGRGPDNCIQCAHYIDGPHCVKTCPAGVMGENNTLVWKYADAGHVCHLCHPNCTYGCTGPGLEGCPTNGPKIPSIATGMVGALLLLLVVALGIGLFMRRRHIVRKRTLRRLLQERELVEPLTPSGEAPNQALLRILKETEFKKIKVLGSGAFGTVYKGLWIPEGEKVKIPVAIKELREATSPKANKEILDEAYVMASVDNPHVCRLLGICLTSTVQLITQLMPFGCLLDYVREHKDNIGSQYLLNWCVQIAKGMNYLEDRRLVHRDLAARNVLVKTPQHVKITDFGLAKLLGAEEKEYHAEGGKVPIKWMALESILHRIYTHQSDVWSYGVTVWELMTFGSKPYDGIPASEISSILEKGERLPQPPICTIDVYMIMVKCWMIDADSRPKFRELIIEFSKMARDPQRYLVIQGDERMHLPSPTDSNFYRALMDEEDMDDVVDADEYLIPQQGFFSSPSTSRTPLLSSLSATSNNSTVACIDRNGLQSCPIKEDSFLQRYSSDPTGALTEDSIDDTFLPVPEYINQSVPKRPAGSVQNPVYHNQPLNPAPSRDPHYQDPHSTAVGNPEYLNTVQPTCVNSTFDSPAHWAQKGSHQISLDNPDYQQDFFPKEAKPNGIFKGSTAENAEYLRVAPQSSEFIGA

Question: Which “Binding Difference ILK (Kd)/EGFR (Kd)” value (purified recombinant ILK; EnSpire fluorescence intensity) does the source give for `C#Cc1cc(Nc2ncnc3cc(OCCOC)ccc23)cc(OCCOCC)c1` [Compound 1] here?
Answer: 0.1565

Question: What about the Kd (purified recombinant ILK; EnSpire fluorescence intensity, read-out: ILK - Binding affinity) of the same compound?
Answer: 2.77 µM

Question: What about the Kd (purified recombinant ILK; fluorescence-based binding assay, purified ILK, read-out: KD to ILK) of the same compound?
Answer: ~2.77 µM

Question: What about the IC50 (purified EGFR) of the same compound?
Answer: 77.2 µM

Question: And the IC50 (CYP 2A6)?
Answer: > 50 µM

Question: What about the IC50 (CYP 2B6) of the same compound?
Answer: > 50 µM

Question: What about the IC50 (CYP 2C9) of the same compound?
Answer: 13.8 µM

Question: And the IC50 (CYP 2E1)?
Answer: > 50 µM

Question: What about the half-life ([1]; Mouse liver microsomes) of the same compound?
Answer: 35.4 min

Question: And the microsomal CLint ([1]; Mouse liver microsomes, read-out: CLint (μL/min/mg protein))?
Answer: 39.2 µL/min/mg

Question: What about the CLint scaled ([1]; Mouse liver microsomes, read-out: Scaled-up CLint) of the same compound?
Answer: 172 mL/min/kg

Question: And the “Remaining Percentage (%)” value ([1]; With NADPH, 0 min)?
Answer: 100.00%

Question: And the “Remaining Percentage (%)” value ([1]; With NADPH, 15 min)?
Answer: 72.40%

Question: What about the “Remaining Percentage (%)” value ([1]; With NADPH, 30 min) of the same compound?
Answer: 51.67%

Question: What about the “Remaining Percentage (%)” value ([1]; With NADPH, 45 min) of the same compound?
Answer: 37.39%

Question: And the “Remaining Percentage (%)” value ([1]; With NADPH, 60 min)?
Answer: 32.04%

Question: What about the “Remaining Percentage (%)” value ([1]; Without NADPH, 0 min) of the same compound?
Answer: 100.00%

Question: What about the “Remaining Percentage (%)” value ([1]; Without NADPH, 15 min) of the same compound?
Answer: 93.90%

Question: What about the “Remaining Percentage (%)” value ([1]; Without NADPH, 30 min) of the same compound?
Answer: 93.90%

Question: And the “Remaining Percentage (%)” value ([1]; Without NADPH, 45 min)?
Answer: 91.46%

Question: What about the “Remaining Percentage (%)” value ([1]; Without NADPH, 60 min) of the same compound?
Answer: 94.51%

Question: And the logD [2]?
Answer: 3.61

Question: What about the IC50 (HepG2 cells; Galactose, read-out: IC50 (μM)_Galactose) of the same compound?
Answer: > 150 µM

Question: And the IC50 (HepG2 cells; Glucose, read-out: IC50 (μM)_Glucose)?
Answer: > 150 µM

Question: What about the Compound precipitation (HepG2 cells; at 50 and 150 μM in mitochondrial toxicity assay) of the same compound?
Answer: * Compound precipitation observed for Compound 1 at 50 and 150 μM.

Question: What about the recovery [3] of the same compound?
Answer: 98.8%

Question: What about the fraction unbound ([3]; read-out: % Bound (converted)) of the same compound?
Answer: 0.0303

Question: And the recovery [4]?
Answer: 110%

Question: What about the fraction unbound ([4]; read-out: % Bound) of the same compound?
Answer: 0.01

Question: What about the solubility [5] of the same compound?
Answer: 7.96 µM (≈ 3.24 µg/mL)

Question: What about the “effect on proliferation of MCF10a cells” value (MCF10a cells) of the same compound?
Answer: little effect

Question: What about the IC50 (MDA-MB-231 cells; Homo sapiens, MDA-MB-231, read-out: IC50 on MDA-MB-231) of the same compound?
Answer: ~0.19 µM

Question: And the “effect on proliferation of MDA-MB-231 cells” value (MDA-MB-231 cells; compounds at final 2 μM, FIG. 5 panel B)?
Answer: substantially inhibited the proliferation

Question: And the “toxic symptoms in normal mice” value [6]?
Answer: no toxic symptoms
